# Data published in PMC6036575, “Reincarnation of Bacteriocins From the Lactobacillus Pangenomic Graveyard” (Frontiers in Microbiology, 2018).
# No end group written: not given here.
# Columns and labels:
# 32 indicator strains = experiment: Well diffusion assays against the panel of 32 indicator strains; type: cell-based; settings: for antimicrobial activity / spectrum, in words: crude supernatant from the E. coli heterologous host, pediocin PA-1 leader; for Total no. of strains inhibited: of 32 indicator strains, supernatant of E. coli transformants encoding the pediocin leader
# Experimental: (§1) Bacteriocin activity was determined using well diffusion assays (WDAs). For Tuner^TM (DE3) E. coli transformants both the cell supernatant and the cell lysates were analyzed for antimicrobial activity, whilst only the supernatants were analyzed for L. paracasei NFBC338 cells. Supernatant was isolated by centrifugation of the liquid cultures at 4000 RCF for 15 min, these supernatants were then filtered using 0.20 μm membrane filters. For cell lysates, cell pellets were resuspended in 5 ml of phosphate-buffered saline (PBS), cells were lysed by sonication using a MSE Soniprep 150 (MSE, London, UK). Lysates were subsequently centrifuged at 4000 RCF for 15 min and the resulting supernatants were filtered using 0.20 μm membrane filters. For the indicator plates, 50 μl of an overnight culture of the indicator strain was added to the appropriate media containing 1% agar. Plates were cooled and 7 mm wells were bored in the agar. 50 μl of the cell supernatants/lysates being tested were added to each well and plates were refrigerated for 2 h prior to incubation under the appropriate conditions. WDAs were carried out in triplicate for each bacteriocin.
# (§2) E. coli Tuner^TM (DE3) cells transformed with the newly constructed plasmids were grown in LB supplemented with glucose to maintain a low-copy number and bacteriocin expression was induced by co-incubation of the clones with 50 μM IPTG for 3 h. WDAs were used to identify bacteriocin activity from the bacterial supernatants and cell lysates. Bacteriocins were exclusively found in the bacterial supernatant. Antimicrobial activity was lower in cases where the native leader of the bacteriocin sequence was used; with only four of the nine strains displaying zones of inhibition against a sensitive indicator (pediocin 20336a has an identical leader to pediocin PA-1). For expression in L. paracasei NFBC338, cells were transformed by electroporation with the bacteriocin-containing pNZ44 vectors. Positive transformants were grown overnight and the neutralized cell free supernatant was used to identify bacteriocin production in WDAs.
# (§3) The spectrum of activity was determined using WDAs against 32 indicator strains for bacteriocins produced by the E. coli transformants encoding the pediocin leader (Table 2). Despite being of the same class of bacteriocins, these novel antimicrobials display a varying spectrum of activity. […] Many of these bacteriocins, however, can inhibit a wide range of Gram positive bacteria including potential pathogens such as Enterococcus faecalis. As with most class IIa bacteriocins, these also display potent anti-listerial activity.
# L. kimchicus JCM 15530 = experiment: Well diffusion assay, spectrum of bacteriocin activity; type: cell-based; settings: 50 μl filtered supernatant of E. coli Tuner (DE3) transformants encoding the pediocin PA-1 leader, 7 mm wells, triplicate
# Experimental: as §1, §2, §3
# E.mundtii LMG 10748 = experiment: as above; type: cell-based; settings: 50 μl filtered supernatant of E. coli Tuner (DE3) transformants encoding the pediocin PA-1 leader, 7 mm wells, triplicate
# Experimental: as §1, §2, §3
# [1] = test system: E. saccharolyticus DPC 4902; experiment: as above; type: cell-based; settings: 50 μl filtered supernatant of E. coli Tuner (DE3) transformants encoding the pediocin PA-1 leader, 7 mm wells, triplicate
# Experimental: as §1, §2, §3
# [2] = test system: Li. monocytogenes DPC 6893; experiment: as above; type: cell-based; settings: 50 μl filtered supernatant of E. coli Tuner (DE3) transformants encoding the pediocin PA-1 leader, 7 mm wells, triplicate
# Experimental: as §1, §2, §3
# P. clausenii DSM 14800 = experiment: as above; type: cell-based; settings: 50 μl filtered supernatant of E. coli Tuner (DE3) transformants encoding the pediocin PA-1 leader, 7 mm wells, triplicate
# Experimental: as §1, §2, §3
# L. nodensis DSM 16982 = experiment: as above; type: cell-based; settings: 50 μl filtered supernatant of E. coli Tuner (DE3) transformants encoding the pediocin PA-1 leader, 7 mm wells, triplicate
# Experimental: as §1, §2, §3
# [3] = test system: P. ethanolidurans DSM 22301; experiment: as above; type: cell-based; settings: 50 μl filtered supernatant of E. coli Tuner (DE3) transformants encoding the pediocin PA-1 leader, 7 mm wells, triplicate
# Experimental: as §1, §2, §3
# L. apodemi DSM 16654 = experiment: as above; type: cell-based; settings: 50 μl filtered supernatant of E. coli Tuner (DE3) transformants encoding the pediocin PA-1 leader, 7 mm wells, triplicate
# Experimental: as §1, §2, §3
# L. plantarum DSM 13273 = experiment: as above; type: cell-based; settings: 50 μl filtered supernatant of E. coli Tuner (DE3) transformants encoding the pediocin PA-1 leader, 7 mm wells, triplicate
# Experimental: as §1, §2, §3
# [4] = test system: Listeria innocua DPC 3572; experiment: as above; type: cell-based; settings: 50 μl filtered supernatant of E. coli Tuner (DE3) transformants encoding the pediocin PA-1 leader, 7 mm wells, triplicate
# Experimental: as §1, §2, §3
# [5] = test system: Pediococcus stilesii DSM 18001; experiment: as above; type: cell-based; settings: 50 μl filtered supernatant of E. coli Tuner (DE3) transformants encoding the pediocin PA-1 leader, 7 mm wells, triplicate
# Experimental: as §1, §2, §3
# L. mali DSM 20444 = experiment: as above; type: cell-based; settings: 50 μl filtered supernatant of E. coli Tuner (DE3) transformants encoding the pediocin PA-1 leader, 7 mm wells, triplicate
# Experimental: as §1, §2, §3
# L. amylophilus DSM 20509 = experiment: as above; type: cell-based; settings: 50 μl filtered supernatant of E. coli Tuner (DE3) transformants encoding the pediocin PA-1 leader, 7 mm wells, triplicate
# Experimental: as §1, §2, §3
# [6] = test system: Enterococcus faecalis LMG 7397; experiment: as above; type: cell-based; settings: 50 μl filtered supernatant of E. coli Tuner (DE3) transformants encoding the pediocin PA-1 leader, 7 mm wells, 1% agar, triplicate
# Experimental: as §1, §2, §3
# [7] = test system: Li. monocytogenes WSL 1416; experiment: as above; type: cell-based; settings: 50 μl filtered supernatant of E. coli Tuner (DE3) transformants encoding the pediocin PA-1 leader, 7 mm wells, triplicate
# Experimental: as §1, §2, §3
# L. crustorum JCM 15951 = experiment: as above; type: cell-based; settings: 50 μl filtered supernatant of E. coli Tuner (DE3) transformants encoding the pediocin PA-1 leader, 7 mm wells, triplicate
# Experimental: as §1, §2, §3
# [8] = test system: L. paralimentarius DSM 13961; experiment: as above; type: cell-based; settings: 50 μl filtered supernatant of E. coli Tuner (DE3) transformants encoding the pediocin PA-1 leader, 7 mm wells, triplicate
# Experimental: as §1, §2, §3
# [9] = test system: Li. monocytogenes DPC 6894; experiment: as above; type: cell-based; settings: 50 μl filtered supernatant of E. coli Tuner (DE3) transformants encoding the pediocin PA-1 leader, 7 mm wells, triplicate
# Experimental: as §1, §2, §3
# L. innocua DPC3572 = experiment: Bacteriocin activity (BU/ml), dilution series in well diffusion assay; type: cell-based, Listeria innocua; settings: inverse of the highest dilution of bacterial supernatant showing activity in a well diffusion assay
# Experimental: as §1, §2
# L. amylovorus DSM 20531 = experiment: Well diffusion assay, spectrum of bacteriocin activity; type: cell-based; settings: 50 μl filtered supernatant of E. coli Tuner (DE3) transformants encoding the pediocin PA-1 leader, 7 mm wells, triplicate
# Experimental: as §1, §2, §3
# [10] = produced by E. coli Tuner (DE3)
# [11] = produced by L. paracasei NFBC338, neutralized cell free supernatant
Substance,"antimicrobial activity / spectrum, in words (32 indicator strains)",Total no. of strains inhibited (32 indicator strains),radius of the zone of inhibition (E.mundtii LMG 10748),radius of the zone of inhibition [1],radius of the zone of inhibition [2],radius of the zone of inhibition (P. clausenii DSM 14800),radius of the zone of inhibition [3],radius of the zone of inhibition (L. apodemi DSM 16654),radius of the zone of inhibition (L. plantarum DSM 13273),radius of the zone of inhibition [4],radius of the zone of inhibition [5],radius of the zone of inhibition (L. mali DSM 20444),radius of the zone of inhibition (L. amylophilus DSM 20509),radius of the zone of inhibition [6],radius of the zone of inhibition [7],radius of the zone of inhibition (L. crustorum JCM 15951),radius of the zone of inhibition [8],radius of the zone of inhibition [9],Bacteriocin Activity (BU/ml) vs. L. innocua DPC3572 (L. innocua DPC3572; [10]),Bacteriocin Activity (BU/ml) vs. L. innocua DPC3572 (L. innocua DPC3572; [11]),further results
"–KYYGNGLYCG-KHSCSVDWGKATTCIINNGAMAWATGGHQGTHKC—— (bicyclic or more) [Pediocin 20336a (Ped20336), novel pediocin-like class IIa bacteriocin encoded by P. pentosaceus DSM 20336, heterologously expressed]",inhibited the growth of a larger number of the indicators tested than pediocin PA-1,18,4.67 ± 0.47 millimeters,5.67 ± 0.47 millimeters,2.67 ± 0.47 millimeters,0.67 ± 0.47 millimeters,5.67 ± 0.47 millimeters,3.67 ± 0.47 millimeters,1.33 ± 0.47 millimeters,7.33 ± 0.47 millimeters,1 ± 0 millimeters,6.33 ± 0.47 millimeters,0.33 ± 0.47 millimeters,4 ± 0 millimeters,3.33 ± 0.94 millimeters,1 ± 0 millimeters,1 ± 0.47 millimeters,4.33 ± 0.47 millimeters,+ (+ = 0 – 160 BU/ml),+ (+ = 0 – 160 BU/ml),radius of the zone of inhibition (L. kimchicus JCM 15530): 0.33 ± 0.47 millimeters; radius of the zone of inhibition (L. nodensis DSM 16982): 1.67 ± 0.47 millimeters
"–KYYGNGVSCTKKHGCKVNWGQAFTCSVNRFANFGH–G————-NC— (bicyclic or more) [Hordeiocin (Hrd), novel pediocin-like class IIa bacteriocin encoded by L. hordei DSM 19519, heterologously expressed]",inhibited the growth of a larger number of the indicators tested than pediocin PA-1,18,2.67 ± 0.47 millimeters,3.67 ± 0.47 millimeters,2 ± 0 millimeters,2 ± 0 millimeters,3.67 ± 0.47 millimeters,2.67 ± 0.47 millimeters,1.33 ± 0.47 millimeters,4.67 ± 0.47 millimeters,1 ± 0 millimeters,4.33 ± 0.47 millimeters,2.50 ± 0.41 millimeters,2.67 ± 0.47 millimeters,2 ± 0.82 millimeters,1 ± 0 millimeters,1 ± 0.47 millimeters,4 ± 0 millimeters,+++ (+++ = 5120 – 10240 BU/ml),++ (++ = 320 – 2560 BU/ml),radius of the zone of inhibition (L. kimchicus JCM 15530): 3 ± 0 millimeters; radius of the zone of inhibition (L. nodensis DSM 16982): 3.67 ± 0.47 millimeters
"–KYYGNGVTCG-KHSCSVDWGKATTCIINNGAMAWATGGHQGNHKC—– (bicyclic or more) (KYYGNGVTCGKHSCSVDWGKATTCIINNGAMAWATGGHQGNHKC; not fully specified (bridges); cysteine pairing not given here; UniProt P29430 19-62, looked up) [Pediocin PA-1 (PedA), original class IIa bacteriocin of P. acidilactici LMG 2351, used as a control; heterologously expressed, reference compound]",,14,5 ± 0 millimeters,6 ± 0 millimeters,3 ± 0 millimeters,,5.67 ± 0.47 millimeters,3.33 ± 0.47 millimeters,0.33 ± 0.47 millimeters,8 ± 0 millimeters,1 ± 0 millimeters,7.67 ± 0.47 millimeters,,4.33 ± 0.47 millimeters,3.33 ± 0.94 millimeters,0.33 ± 0.47 millimeters,0.67 ± 0.47 millimeters,5 ± 0 millimeters,+ (+ = 0 – 160 BU/ml),++ (++ = 320 – 2560 BU/ml),
"–KYYGNGVYCG-KHKCRVDWGQAWGCSVNRWGAAVGTGGKATIGHC— (bicyclic or more) [Ruminicin (Rum), novel pediocin-like class IIa bacteriocin encoded by L. ruminis DSM 20403, heterologously expressed]",,14,2 ± 0 millimeters,2 ± 0 millimeters,1 ± 0 millimeters,1 ± 0 millimeters,2.17 ± 0.24 millimeters,1.67 ± 0.47 millimeters,,3.33 ± 0.47 millimeters,,2 ± 0 millimeters,1.33 ± 0.47 millimeters,1.17 ± 0.24 millimeters,1 ± 0 millimeters,0.33 ± 0.47 millimeters,,2 ± 0 millimeters,+++ (+++ = 5120 – 10240 BU/ml),+++ (+++ = 5120 – 10240 BU/ml),radius of the zone of inhibition (L. amylovorus DSM 20531): 0.67 millimeters
